Assay results reported in ChEMBL document CHEMBL4699452, “Design, synthesis, and optimization of a series of 2-azaspiro[3.3]heptane derivatives as orally bioavailable fetal hemoglobin inducers” (Bioorg Med Chem Lett, 2020).
Active and inactive are the calls of the source. The calls are words filed in the database; no cut-off is given here.

How the values were obtained:
[1] = Induction of fetal hemoglobin in human bone marrow derived CD34+ cells incubated for 5 days by FITC staining based flow cytometry analysis; format: functional, tissue-based; details: cd34-positive (myeloid/lymphoid) cell
[2] = Metabolic stability in human liver microsomes assessed as parent compound remaining at 0.5 mg/mL incubated for 0.5 hrs; format: ADME, Microsome; details: read-out: Stabilty
[3] = Metabolic stability in monkey liver microsomes assessed as parent compound remaining at 0.5 mg/mL incubated for 0.5 hrs; format: ADME, Macaca mulatta, Microsome; details: rhesus monkey, read-out: Stabilty
[4] = Induction of fetal hemoglobin in human bone marrow derived CD34+ cells assessed as maximum efficacy incubated for 5 days by FITC staining based flow cytometry analysis relative to decitabine; format: functional; details: CD34-positive (myeloid/lymphoid) cell, 120 h, time 5 day
Macaca fascicularis [5] = assay: In vivo induction of fetal hemoglobin in cynomolgus monkey assessed as gamma-globin gene expression at 30 mg/kg, po qd administered for 6 consecutive days by RT-qPCR analysis; format: functional, organism-based; details: time 6.0 day
CYP2C9 = CYP2C9 (Homo sapiens, UniProt P11712); assay: Inhibition of CYP2C9 (unknown origin) at 10 uM relative to control; format: ADME
Sequence of CYP2C9 (P11712 whole entry): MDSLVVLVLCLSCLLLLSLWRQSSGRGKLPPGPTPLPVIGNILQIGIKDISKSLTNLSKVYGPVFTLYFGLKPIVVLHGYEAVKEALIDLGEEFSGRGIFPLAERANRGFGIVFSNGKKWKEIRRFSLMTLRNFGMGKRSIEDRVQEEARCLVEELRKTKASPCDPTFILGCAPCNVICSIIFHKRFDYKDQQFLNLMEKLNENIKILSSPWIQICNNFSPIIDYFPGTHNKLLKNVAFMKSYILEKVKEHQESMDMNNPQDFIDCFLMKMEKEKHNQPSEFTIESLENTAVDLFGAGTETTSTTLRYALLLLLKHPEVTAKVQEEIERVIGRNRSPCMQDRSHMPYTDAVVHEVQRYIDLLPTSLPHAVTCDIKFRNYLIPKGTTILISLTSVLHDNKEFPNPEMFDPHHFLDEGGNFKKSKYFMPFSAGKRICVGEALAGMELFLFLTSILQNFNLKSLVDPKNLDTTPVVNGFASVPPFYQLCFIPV

hERG (KCNH2) = hERG (KCNH2) (Homo sapiens, UniProt Q12809); assay: Inhibition of human ERG at 10 uM relative to control
Sequence of hERG (KCNH2) (Q12809 whole entry): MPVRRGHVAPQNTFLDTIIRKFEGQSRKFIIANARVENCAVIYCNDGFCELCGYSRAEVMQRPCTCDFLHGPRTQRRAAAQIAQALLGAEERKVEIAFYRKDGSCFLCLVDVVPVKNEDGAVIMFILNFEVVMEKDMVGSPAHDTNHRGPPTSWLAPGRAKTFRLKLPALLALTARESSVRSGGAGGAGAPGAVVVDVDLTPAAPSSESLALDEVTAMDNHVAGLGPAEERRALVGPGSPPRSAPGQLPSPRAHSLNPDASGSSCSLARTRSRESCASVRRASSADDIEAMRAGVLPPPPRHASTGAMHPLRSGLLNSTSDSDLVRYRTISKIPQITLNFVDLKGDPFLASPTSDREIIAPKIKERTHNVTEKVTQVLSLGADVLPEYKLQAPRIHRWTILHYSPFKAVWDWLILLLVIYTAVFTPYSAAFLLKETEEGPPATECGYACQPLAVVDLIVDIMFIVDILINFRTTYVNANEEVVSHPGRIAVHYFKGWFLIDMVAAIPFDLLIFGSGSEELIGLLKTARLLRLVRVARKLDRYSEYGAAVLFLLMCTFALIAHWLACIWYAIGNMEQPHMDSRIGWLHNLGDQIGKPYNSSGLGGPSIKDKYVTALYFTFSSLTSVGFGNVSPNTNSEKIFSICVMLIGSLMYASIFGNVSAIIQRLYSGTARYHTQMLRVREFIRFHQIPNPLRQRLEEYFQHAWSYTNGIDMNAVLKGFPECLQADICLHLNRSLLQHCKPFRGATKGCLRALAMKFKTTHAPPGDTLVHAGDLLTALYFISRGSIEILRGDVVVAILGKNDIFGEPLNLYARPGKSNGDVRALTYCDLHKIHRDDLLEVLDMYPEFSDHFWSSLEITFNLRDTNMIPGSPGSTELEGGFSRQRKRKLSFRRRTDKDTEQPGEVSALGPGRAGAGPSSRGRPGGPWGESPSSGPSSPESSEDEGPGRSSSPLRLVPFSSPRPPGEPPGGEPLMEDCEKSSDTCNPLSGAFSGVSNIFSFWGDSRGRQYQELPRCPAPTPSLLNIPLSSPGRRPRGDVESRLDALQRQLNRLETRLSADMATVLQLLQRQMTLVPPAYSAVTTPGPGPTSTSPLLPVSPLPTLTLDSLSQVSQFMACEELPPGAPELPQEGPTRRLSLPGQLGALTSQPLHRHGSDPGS

[6] = Cmax in monkey at 1 mg/kg, po; format: ADME, organism-based, Macaca mulatta; design: route oral, dose 1 mg/kg; details: rhesus monkey, in vivo
[7] = Solubility of the compound in pH 1.2 JP1 fluid; format: physicochemical
[8] = Toxicity in cynomolgus monkey assessed as transient hypoglycemia at 30 mg/kg, po qd administered for 6 consecutive days; format: organism-based, Macaca fascicularis; details: in vivo, 144 h, time 6 day
[9] = Genotoxicity in Salmonella typhimurium by Ames test; format: toxicity; details: salmonella enterica subsp. enterica serovar typhimurium
CYP3A4 [10] = biological target: T1, CYP3A4 (Homo sapiens, UniProt P08684); assay: Inhibition of CYP3A4 (unknown origin) at 10 uM relative to control; format: ADME
T1 sequence (P08684 whole entry): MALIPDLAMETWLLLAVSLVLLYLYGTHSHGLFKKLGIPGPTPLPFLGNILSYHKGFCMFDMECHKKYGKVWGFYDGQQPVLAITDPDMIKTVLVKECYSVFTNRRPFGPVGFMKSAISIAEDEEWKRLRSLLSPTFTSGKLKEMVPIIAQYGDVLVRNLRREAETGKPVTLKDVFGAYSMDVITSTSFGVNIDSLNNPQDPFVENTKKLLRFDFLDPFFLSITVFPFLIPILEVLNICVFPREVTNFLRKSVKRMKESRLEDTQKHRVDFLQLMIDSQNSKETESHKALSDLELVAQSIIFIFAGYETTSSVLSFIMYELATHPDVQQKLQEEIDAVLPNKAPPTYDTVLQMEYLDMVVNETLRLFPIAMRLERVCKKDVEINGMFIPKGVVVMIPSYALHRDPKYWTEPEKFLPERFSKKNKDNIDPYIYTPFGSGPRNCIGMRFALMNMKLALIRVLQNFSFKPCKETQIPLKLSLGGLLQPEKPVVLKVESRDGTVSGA

[11] = Cytotoxicity against human bone marrow derived CD34+ cells assessed as effect on cell viability at 15 uM by propidium iodide staining based assay relative to control; design: species or system CD34-positive (myeloid/lymphoid) cell; details: read-out: Activity
[12] = Half life in monkey at 1 mg/kg, po; format: ADME, organism-based, Macaca mulatta; details: rhesus monkey, in vivo
[13] = Solubility of the compound in pH 6.8 JP2 fluid; format: physicochemical
CYP3A4 [14] = biological target: T1, CYP3A4; assay: Mechanism based inhibition of CYP3A4 in human liver microsomes assessed as remaining percentage at 100 uM in presence of substrate incubated for 30 mins relative to control; format: ADME; details: read-out: Activity
CYP2D6 = CYP2D6 (Homo sapiens, UniProt P10635); assay: Inhibition of CYP2D6 (unknown origin) at 10 uM relative to control; format: ADME
Sequence of CYP2D6 (P10635 whole entry): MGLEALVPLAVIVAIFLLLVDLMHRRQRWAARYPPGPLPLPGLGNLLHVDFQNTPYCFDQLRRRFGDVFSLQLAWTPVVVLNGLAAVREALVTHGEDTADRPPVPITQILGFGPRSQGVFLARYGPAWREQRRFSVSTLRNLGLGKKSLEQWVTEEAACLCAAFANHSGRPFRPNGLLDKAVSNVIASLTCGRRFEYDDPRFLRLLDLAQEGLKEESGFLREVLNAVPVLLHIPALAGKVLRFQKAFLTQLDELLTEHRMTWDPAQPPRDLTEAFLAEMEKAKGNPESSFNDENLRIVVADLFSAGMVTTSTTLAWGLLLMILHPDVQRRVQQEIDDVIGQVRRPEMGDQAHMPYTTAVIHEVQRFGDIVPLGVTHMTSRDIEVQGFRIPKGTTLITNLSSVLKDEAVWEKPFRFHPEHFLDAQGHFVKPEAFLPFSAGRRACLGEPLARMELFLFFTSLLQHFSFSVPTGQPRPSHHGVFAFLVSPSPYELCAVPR

Macaca fascicularis [15] = assay: In vivo induction of fetal hemoglobin in po dosed cynomolgus monkey assessed as gamma-globin gene expression administered twice for 6 consecutive days by RT-qPCR analysis; format: functional, organism-based; details: dose mg/kg 15-30, time 6.0 day
[16] = Protein binding in monkey plasma; format: ADME, cell-free, Macaca mulatta; details: rhesus monkey, read-out: PPB (converted)
[17] = AUClast in monkey at 1 mg/kg, po; format: ADME, organism-based, Macaca mulatta; design: route oral, time 0 - last, dose 1 mg/kg; details: rhesus monkey, in vivo
CYP1A2 = biological target: T2, CYP1A2 (Homo sapiens, UniProt P05177); assay: Inhibition of CYP1A2 (unknown origin) at 10 uM relative to control; format: ADME
T2 sequence (P05177 whole entry): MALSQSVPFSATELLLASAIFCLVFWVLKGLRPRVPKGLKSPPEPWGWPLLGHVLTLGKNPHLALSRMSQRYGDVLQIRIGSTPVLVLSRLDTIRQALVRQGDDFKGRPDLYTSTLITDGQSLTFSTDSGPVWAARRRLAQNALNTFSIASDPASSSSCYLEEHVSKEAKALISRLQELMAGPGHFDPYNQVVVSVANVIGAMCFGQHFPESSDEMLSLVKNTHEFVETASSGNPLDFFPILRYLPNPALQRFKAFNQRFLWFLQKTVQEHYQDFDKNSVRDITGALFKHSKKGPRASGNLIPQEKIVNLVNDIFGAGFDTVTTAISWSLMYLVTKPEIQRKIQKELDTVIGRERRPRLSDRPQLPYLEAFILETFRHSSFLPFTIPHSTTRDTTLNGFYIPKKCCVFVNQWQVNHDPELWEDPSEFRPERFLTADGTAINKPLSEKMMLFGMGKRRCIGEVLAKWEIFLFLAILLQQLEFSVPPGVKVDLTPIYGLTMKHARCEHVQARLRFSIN

[18] = Cmax in monkey at 10 mg/kg, po; format: ADME, organism-based, Macaca mulatta; design: route oral, dose 10 mg/kg; details: rhesus monkey, in vivo
[19] = Half life in monkey at 10 mg/kg, po; format: ADME, organism-based, Macaca mulatta; details: rhesus monkey, in vivo
[20] = AUClast in monkey at 10 mg/kg, po; format: ADME, organism-based, Macaca mulatta; design: route oral, time 0 - last, dose 10 mg/kg; details: rhesus monkey, in vivo
[21] = Cytotoxicity against human bone marrow derived CD34+ cells assessed as effect on cell viability at 0.47 to 15 uM by propidium iodide staining based assay; details: cd34-positive (myeloid/lymphoid) cell, dose 0.47-15 µM

Structure (SMILES) | EC50 [1] | remaining at 0.5 h [2] | remaining at 0.5 h [3] | Emax [4] | also measured
CN(C)C(=O)CCNC(=O)C1CSC(c2ccc(F)cc2)N1 (mixture of isomers) | > 5 µM | 90% | 32% | – | –
CCC(=O)N1CC2(CC(NC(=O)c3cc(-c4ccccc4)no3)C2)C1 | > 5 µM | 68% | 69% | 47% | –
CC(=O)N1CC2(CC(NC(=O)c3cc(-c4ccccc4)no3)C2)C1 | 2.8 µM | > 100% | 64% | 54% | Activity (Macaca fascicularis [5]): Active; inhibition at 10 µM (CYP2C9): < 0%; inhibition at 10 µM (hERG (KCNH2)): 18%; Cmax [6]: 545 ng/mL; solubility [7]: > 100 µg/mL; Activity [8]: Toxic; Activity [9]: Non-Toxic; inhibition at 10 µM (CYP3A4 [10]): < 0%; viability at 15 µM [11]: 20%; half-life [12]: 3.7 h; solubility [13]: > 100 µg/mL; activity at 0.5 h, 100 µM (CYP3A4 [14]): 94%; inhibition at 10 µM (CYP2D6): 2%; Activity (Macaca fascicularis [15]): Dose-dependent effect; fraction unbound [16]: 0.41; AUC(0-t) [17]: 4210 ng·h/mL; inhibition at 10 µM (CYP1A2): 3%
CN(C)C(=O)CCN1CCc2c(cc(-c3ccc(F)cc3)n2C)C1=O | > 5 µM | > 100% | 42% | – | –
CN(C)C(=O)CNC(=O)c1cc(-c2ccc(F)cc2)no1 | 6.1 µM | 84% | 11% | 41% | –
CN(C)C(=O)CCNC(=O)c1cc(C2CCCCC2)no1 | > 5 µM | > 100% | 34% | – | –
CN(C)C(=O)CCNC(=O)c1cc(-c2ccc(F)cc2)no1 | 2.8 µM | 87% | 10% | 56% | inhibition at 10 µM (CYP2C9): 6%; inhibition at 10 µM (hERG (KCNH2)): 7.1%; Cmax [18]: 1360 ng/mL; solubility [7]: > 100 µg/mL; Activity [9]: Non-Toxic; inhibition at 10 µM (CYP3A4 [10]): < 0%; solubility [13]: > 100 µg/mL; activity at 0.5 h, 100 µM (CYP3A4 [14]): 97%; inhibition at 10 µM (CYP2D6): 5%; fraction unbound [16]: 0.42; inhibition at 10 µM (CYP1A2): 6%; half-life [19]: 1 h; AUC(0-t) [20]: 4360 ng·h/mL
CS(=O)(=O)N1CC2(CC(NC(=O)c3cc(-c4ccccc4)no3)C2)C1 | 3.9 µM | 76% | 87% | 45% | –
CC(=O)N1CC(CNC(=O)c2cc(-c3ccccc3)no2)C1 | > 5 µM | 50% | 17% | – | –
CN(C)C(=O)CCNC(=O)c1cc(-c2ccccc2F)no1 | > 5 µM | > 100% | 4% | 37% | –
CC(=O)N1CC2(CC(NC(=O)c3cc(-c4ccc(F)cc4)no3)C2)C1 | 2.9 µM | 84% | 79% | 64% | inhibition at 10 µM (CYP2C9): < 0%; Cmax [6]: 460 ng/mL; solubility [7]: > 100 µg/mL; Activity [9]: Non-Toxic; inhibition at 10 µM (CYP3A4 [10]): < 0%; half-life [12]: 5.9 h; solubility [13]: > 100 µg/mL; activity at 0.5 h, 100 µM (CYP3A4 [14]): 98%; inhibition at 10 µM (CYP2D6): 1%; fraction unbound [16]: 0.28; Activity [21]: Non-Toxic; AUC(0-t) [17]: 2350 ng·h/mL; inhibition at 10 µM (CYP1A2): 1%
CN(C)C(=O)CCN1CCc2[nH]c(-c3ccc(F)cc3)cc2C1=O | > 5 µM | 99% | 39% | – | –
CC(CC(=O)N(C)C)NC(=O)c1cc(-c2ccc(F)cc2)no1 (racemic) | > 5 µM | 91% | 35% | – | –
CC(C)C(=O)N1CC2(CC(NC(=O)c3cc(-c4ccccc4)no3)C2)C1 | > 5 µM | 79% | 55% | 27% | –
CCN1CC2(CC(NC(=O)c3cc(-c4ccccc4)no3)C2)C1 | 5 µM | 100% | 87% | 50% | –
CN(C)C(=O)CCCNC(=O)c1cc(-c2ccc(F)cc2)no1 | 4.1 µM | – | – | 55% | –
CN(C)C(=O)CCN(C)C(=O)c1cc(-c2ccc(F)cc2)no1 | > 5 µM | 98% | 36% | – | –
CN(C)C(=O)CCNC(=O)c1cc(-c2cccc(F)c2)no1 | > 5 µM | > 100% | 55% | – | –
CN(C)C(=O)CCNC(=O)c1cc(-c2ccccc2)no1 | 1.7 µM | 81% | 4.7% | 51% | –
CN(C)C(=O)CCN1CCn2cc(-c3ccc(F)cc3)cc2C1=O | > 5 µM | 94% | 41% | – | –
CN(C)C(=O)CCNC(=O)c1csc(-c2ccc(F)cc2)n1 | > 5 µM | 53% | 0.1% | – | –
CN(C)CCCNC(=O)c1cc(-c2ccc(F)cc2)no1 | > 5 µM | – | – | – | –
CC(CNC(=O)c1cc(-c2ccc(F)cc2)no1)C(=O)N(C)C (racemic) | > 5 µM | 61% | 52% | – | –
